Laboratory results: patent US20230329284A1, “BEE ANTIVIRAL COMPOSITIONS” (priority 2022, published 2023)

Experiments:
[1] = system: deformed wing virus; assay: Screen of plant compounds for effect on bee viral loads in live bees; assay type: in vivo, honey bee; details: for deformed wing virus levels (viral loads), dose response: FIG. 6; for antiviral activity in live bee trials: live bees exposed to natural products derived from plants
Description: A total of 140 compounds were screened for their effect on bee viral loads.
All compounds are selected from food-safe (GRAS, generally recognized as safe by the US FDA) libraries and were tested in live bees to assess adverse impacts to bee health. Trials were carried out using live bees exposed to natural products derived from plants. […] Thymol and octanoic acid blends are being tested to assess possible synergies prior to field trials.

[2] = system: Deformed wing virus (DWV); assay: Fluorescent determination of bee viral titers with nano-luciferase-expressing DWV construct; assay type: in vivo, bees; details: for Average Fluorescence, Average Counts: single treatment with 10^5 copies DWV, average of nine bees, DWV alone 111.366, PBS 1.687; for viral load of DWV-infected bees compared with DWV control: low, medium, or high doses
Description: A fluorescent assay was performed to determine the effects of different treatments on bee viral load.
Bees were treated once with different doses of methyl jasmonate while simultaneously receiving an effective does (10^5 copies) of Deformed wing virus (DWV). The methyl jasmonte was at low dose (MJL), medium dose (MJM), or high dose (MJH). Additional bees were treated with thymol solution in low dose (TL), medium dose (TM), and high dose (TH). The infective virus dose comprised a viral construct that expressed nano-luciferase, allowing direct quantification of viral loads via spectrophotometer. As a negative control, phosphate buffered saline (PBS) solution was used alone. As a positive control, bees were infected with 10^5 DWV alone. Measurements were repeated nine times in nine different bees, and an average calculated.

[3] = system: VDV; assay: Methyl jasmonate feeding of naturally VDV-infected adult honey bees, VDV load per bee by qPCR (ΔCq); assay type: in vivo; details: for decrease in VDV titers compared to control bees (sugar alone) / mean change in quantification cycle value of VDV per bee (ΔCq) / decrease in VDV titers compared to control bees / mean ΔCq of VDV per bee: FIG. 1; for decrease in VDV titers compared to control bees (sugar alone) / mean change in quantification cycle value of VDV per bee (ΔCq): day 7; for mean change in quantification cycle value of VDV per bee (ΔCq): control 3.9 (+/-3.5); for decrease in VDV titers compared to control bees / mean ΔCq of VDV per bee: day 12; for mean ΔCq of VDV per bee: control 7.8 ( +/- 2.8)
Description: The effect on viral load of methyl jasmonate (MeJA) treatment on virally-infected bees was tested after 7 days and after 12 days of feeding sugar or sugar + MeJA.
Adult honey bees were reared in cages and fed either sucrose solution, 100 ppm MeJA dissolved in sucrose solution, or 500 ppm of MeJA dissolved in sucrose solution. Bees’ genetic material was individually examined by qPCR for normalized VDV loads at 7 days and 12 days after the start of MeJA treatment. Standard box plots include a dotted line that represents the mean, and each point represents an individual bee from one of various cages per treatment. VDV was not administered artificially and is from a natural infection. Levels of DWV-A, a recombinant variant of VDV, were too low in the specimen for quantification. A higher Δ Cq indicates […] VDV present in the specimen. For Day 7,
A second efficiency test was performed where VDV-infected adult bees were fed 100 ppm of MeJA dissolved in sucrose solution. As a control, only sucrose solution was administered.

CCCCCCCC(=O)O [octanoic acid]
deformed wing virus levels (viral loads), dose response ([1]; higher levels, 10 mM and 100 mM): dose response in viral loads | antiviral activity in live bee trials [1]: antiviral activity

COc1cc(/C=C/C(=O)O)ccc1O [ferulic acid, Ferulic acid]
deformed wing virus levels (viral loads), dose response ([1]; low levels, 0.1 mM): dose response in viral loads | antiviral activity in live bee trials [1]: antiviral activity

Cc1ccc(C(C)C)c(O)c1 [thymol, 2-isopropyl-5-methylphenol]
Average Fluorescence, Average Counts ([2]; high dose): 63.290 | Average Fluorescence, Average Counts ([2]; low dose): 67.092 | viral load of DWV-infected bees compared with DWV control [2]: lower viral load | Average Fluorescence, Average Counts ([2]; medium dose): 72.992 | high-intensity infections (viral levels above threshold) ([1]; FIG. 5, across 3000 honey bee trials): quantitative reduction of high-intensity infections | antiviral activity in live bee trials [1]: antiviral activity

CC/C=C\CC1C(=O)CCC1CC(=O)OC (stereo not shown) [MeJA, Methyl jasmonate]
decrease in VDV titers compared to control bees (sugar alone) ([3]; sugar + 100 ppm MeJA): 11.5% | mean change in quantification cycle value of VDV per bee (ΔCq) ([3]; sugar + 100 ppm MeJA, higher ΔCq = more VDV): 3.45 (+/- 4.8) | decrease in VDV titers compared to control bees (sugar alone) ([3]; sugar + 500 ppm MeJA): 97.8% | mean change in quantification cycle value of VDV per bee (ΔCq) ([3]; sugar + 500 ppm MeJA): 0.085 (+/- 6.16) | decrease in VDV titers compared to control bees ([3]; sugar + 100 ppm MeJA): 33.3% | mean ΔCq of VDV per bee ([3]; sugar + 100 ppm MeJA): 5.2 ( +/- 4.9) | decrease in VDV titers compared to control bees ([3]; sugar + 500 ppm MeJA): 52.6% | mean ΔCq of VDV per bee ([3]; sugar + 500 ppm MeJA): 3.7 ( +/- 5.3) | decrease in VDV titers compared to bees fed sugar alone (using the mean) ([3]; FIG. 3, Day 7, sugar + 500 ppm MeJA): 7.1% | median Cq ([3]; FIG. 3, Day 7, sugar + 500 ppm MeJA, control 7.1): 6.1 | mean Cq ([3]; FIG. 3, Day 7, sugar + 500 ppm MeJA, spread 2.1, control 7.0): 6.5 | decrease in VDV titers compared to bees fed sugar alone (using the mean) ([3]; second efficiency test, FIG. 2, Day 7, sugar + 100 ppm MeJA): 21.9% | median ΔCq ([3]; second efficiency test, FIG. 2, Day 7, sugar + 100 ppm MeJA, control 4.17): 1.33 | mean ΔCq ([3]; second efficiency test, FIG. 2, Day 7, sugar + 100 ppm MeJA, std dev. 3.8, control 3.2): 2.5 | viral levels compared with bees fed sugar alone ([3]; treated for 12 days with sugar + MeJA): significantly lower viral levels | Average Fluorescence, Average Counts ([2]; high dose): 68.246 | Average Fluorescence, Average Counts ([2]; low dose): 76.120 | viral load of DWV-infected bees compared with DWV control [2]: lower viral load | Average Fluorescence, Average Counts ([2]; medium dose): 83.905 | deformed wing virus levels (viral loads), dose response ([1]; higher levels, 1 mM or 10 mM): dose response in viral loads | antiviral activity in live bee trials [1]: antiviral activity
